Values of other authors, collected in patent US20260183312A1, “A ROOM-TEMPERATURE STABLE, UNBUFFERED FORMULATION OF ROCURONIUM BROMIDE INJECTION FOR INTRAVENOUS ADMINISTRATION AND A METHOD THEREOF” (MAIVA PHARMA PRIVATE LIMITED, priority 2023, published 2026).

C=CC[N+]1([C@H]2C[C@H]3[C@@H]4CC[C@H]5C[C@H](O)[C@@H](N6CCOCC6)C[C@]5(C)[C@H]4CC[C@]3(C)[C@H]2OC(C)=O)CCCC1 [Rocuronium, Rocuronium bromide]
Patients with severe burning pain on administration: up to 80%
